Measured values from patent publication US9936701B2, “Herbicidal compounds” (Syngenta Participations AG, priority 2013, dated 2018).

Tests used:
[1] = system: a variety of test species; experiment: Pre-emergence herbicidal activity (glasshouse, sprayed one day after sowing, evaluated after 13 days); type: in vivo; parameters: key: 5=total damage to plant; 0=no damage to plant; conditions: application pre-emergence, rate 1000 g/Ha, scale 0-5
Procedure, shortened: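 Damage rated 13 days post-treatment on a 0-5 scale, 5 meaning total plant damage. Pots were sprayed pre-emergence, one day after sowing, with an acetone/water-derived aqueous spray containing 0.5% Tween 20. Plants grew under 14 h light, 65% humidity, 24/16 °C, watered twice daily.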

[2] = system: a variety of test species; experiment: Post-emergence herbicidal activity (glasshouse, sprayed after 8 days cultivation, evaluated after 13 days); type: in vivo; parameters: key: 5=total damage to plant; 0=no damage to plant; conditions: rate 1000 g/Ha, scale 0-5
Procedure, shortened: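 Foliar application to 8-day-old plants using a 0.5% Tween 20 acetone/water carrier; phytotoxicity is scored visually from 0 to 5 after 13 days of growth at 24/16 °C day/night.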

Structure (SMILES) | melting point [°C] | Pre-emergence herbicidal damage score, ABUTH [1] | Pre-emergence herbicidal damage score, ALOMY [1] | Pre-emergence herbicidal damage score, AMARE [1] | Pre-emergence herbicidal damage score, ECHCG [1] | Pre-emergence herbicidal damage score, SETFA [1] | Pre-emergence herbicidal damage score, ZEAMX [1] | ABUTH (Abutilon theophrasti) damage score, application post-emergence [2] | ALOMY (Alopecurus myosuroides) damage score, application post-emergence [2] | AMARE (Amaranthus retroflexus) damage score, application post-emergence [2] | ECHCG (Echinochloa crus-galli) damage score, application post-emergence [2] | SETFA (Setaria faberi) damage score, application post-emergence [2] | ZEAMX (Zea mays) damage score, application post-emergence [2]
CC1=C(Cl)C(=O)N(c2noc(C(C)(C)C)c2C#N)C1O (stereo not shown) [A31, 5-tert-butyl-3-(4-chloro-2-hydroxy-3-methyl-5-oxo-2H-pyrrol-1-yl)isoxazole-4-carbonitrile] | 174 to 176 | 5 | 3 | 5 | 5 | 5 | 3 | 5 | 5 | 5 | 5 | 5 | 4
C=CCOCC(C)(C)c1cc(N2C(=O)C(Cl)=C(C)C2O)no1 (stereo not shown) [A33] | 66 to 68 | 3 | 2 | 5 | 4 | 3 | 3 | 5 | 4 | 5 | 5 | 4 | 5
CCOCC(C)(C)c1cc(N2C(=O)C(Cl)=C(C)C2O)no1 (stereo not shown) [A34] | 99 to 101 | 5 | 3 | 5 | 5 | 4 | 2 | 5 | 4 | 5 | 5 | 4 | 5
CC(C)=CCCc1cc(N2C(=O)C(Cl)=C(C)C2O)no1 (stereo not shown) [A35] | 72 to 74 | 1 | 1 | 3 | 0 | 0 | 0 | 4 | 1 | 5 | 2 | 0 | 1
CCOC(C)(C)CCCc1cc(N2C(=O)C(Cl)=C(C)C2O)no1 (stereo not shown) [A36] | 110 to 112 | 5 | 3 | 5 | 4 | 1 | 1 | 5 | 4 | 5 | 5 | 2 | 1
CCCC(C)(C)c1cc(N2C(=O)C(Cl)=C(C)C2O)no1 (stereo not shown) [A37] | 96 to 98 | 5 | 4 | 5 | 5 | 4 | 1 | 5 | 5 | 5 | 5 | 5 | 3
CCCCC(C)(C)c1cc(N2C(=O)C(Cl)=C(C)C2O)no1 (stereo not shown) [A38] | 75 to 77 | 1 | 3 | 5 | 5 | 2 | 1 | 5 | 5 | 5 | 5 | 5 | 2
CC1=C(Cl)C(=O)N(c2cc(C(C)(C)CO)on2)C1O (stereo not shown) [A39] | 130 to 132 | 1 | 1 | 4 | 3 | 0 | 1 | 4 | 3 | 5 | 5 | 1 | 1
CCC(C)(C)c1onc(N2C(=O)C(Cl)=C(C)C2O)c1C#N (stereo not shown) [A40] | 166 to 168 | 4 | 3 | 5 | 5 | 5 | 2 | 5 | 4 | 5 | 5 | 5 | 3
C=CC(C)(C)c1cc(N2C(=O)C(Cl)=C(C)C2O)no1 (stereo not shown) [A41] | 114 to 116 | 5 | 4 | 5 | 4 | 5 | 3 | 5 | 5 | 5 | 5 | 5 | 4
